Here are results for two compounds from US12410141B2, “Anti-cancer spirocyclic-guanidine compounds and uses thereof” (The Johns Hopkins University, priority 2020, dated 2025).

The test system of data set [1] is HeLa. The experiment in a line: MTT cytotoxicity assay, HeLa. The data set is classed as cell-based. The settings on record: cervical, 72 hr, read-out: IC50, cell killing. The protocol:
(§1) All cell lines were obtained from the American Type Culture Collection (ATCC) and cultured in the specified medium supplemented with 10% fetal bovine serum, 100 IU/mL penicillin, and 100 μg/mL streptomycin at 37° C. in a humidified 5% CO2/95% air incubator. To assess drug cytotoxicity cells were seeded at 2,500 cells/well (10,000 cells/well for MM lines and primary cells) in 100 μL medium in 96-well plate. […]
(§2) It was examined whether the RPN13 inhibitor, RA475, was cytotoxic for cancer cell lines using the MTT assay.

Data set [2] has as its system MCF7. The experiment in a line: MTT cytotoxicity assay, MCF7. Format: cell-based. Conditions: MCF7, breast, 72 hr, read-out: IC50, cell killing. As for the experimental part: as §1, §2
Data set [3] deals with TC1. The experiment in a line: MTT cytotoxicity assay, TC1. Format: cell-based. The settings on record: TC1, cervical, 72 hr, read-out: IC50, cell killing. As for the experimental part: as §1, §2
Data set [4] has as its system U251MG. Briefly: MTT cytotoxicity assay, U251MG. Format: cell-based. Conditions: glioblastoma multiforme, 72 hr, read-out: IC50, cell killing. As for the experimental part: as §1, §2
Data set [5] has as its system CD-1 mice. Briefly: Single-dose tolerability in CD-1 mice. The data set is classed as in vivo, mouse. The protocol:
All animal procedures were performed according to protocols approved by the Johns Hopkins University Animal Care and Use Committee, and in accordance with the AAALAC recommendations for the proper use and care of laboratory animals (protocol MO15M375, renewed as MO18M129). Four to six week old female CD-1 mice were purchased from Jackson Laboratories (ME, USA). Isoflurane anesthesia was used during imaging. The health conditions and/or criteria under which early euthanasia or withdrawal of an animal from the study was implemented included, but are not limited to, general signs of distress such as hunched posture, lethargy, anorexia, dehydration, rough hair coat and/or those that are directly related to the experimental procedures e.g. loss of weight >10%, lethargy, restricted movement of limbs, distended abdomen. Animals in distress were euthanized by carbon dioxide asphyxiation, and cervical dislocation was used to ensure death. This is an acceptable form of euthanasia for mice and in compliance with the recommendations of the Panel on Euthanasia of the American Veterinary Medical Association.
RA475 powder was directly dissolved in 25% β-hydroxy propyl cyclodextrin as a clear solution and administered at increasing single doses to CD-1 mice (n=3) via intraperitoneal injection.

The target in data set [6] is T1, 42 kDa cellular protein, consistent with RPN13 (Homo sapiens, UniProt Q16186).
T1 construct: endogenous in cells; host or cells: SKOV3 or ES2 cell lysates, pre-cleared with streptavidin-coated beads
The experiment in a line: Up284B competitive labeling assay in SKOV3 or ES2 cell lysates. Format: binding. The settings on record: pre-cleared SKOV3 or ES2 lysates, 45 min at 4° C., then 5 μM Up284B. The protocol: Clarified cell lysate (40 ug/sample) in MPER buffer was pretreated with streptavidin-coated magnetic beads for 45 min at 4° C. to deplete non-specific biotinylated proteins in the cell lysate. […] Next, the samples were mixed with Laemmli sample buffer (BioRad) and boiled for 5 min. The proteins were separated using a 4-15% Bio-Rad Mini-PROTEAN SDS-PAGE gel (1 hr at 100 V), and transferred to PVDF membrane overnight at 4° C. (24 V). The membrane was blocked with 5% BSA in PBST for 1 hr at RT and washed for 20 minutes (3× with PBST). Then the membrane was probed with HRP-streptavidin (1:10,000 in PBST) for 1 hr at RT, washed for 30 min (3× with PBST), and developed using HyGLO chemiluminescent detection reagent (Denville) for biotin detection.
Briefly SKOV3 or ES2 cell lysates were first pre-cleared with streptavidin-coated beads to deplete endogenous biotinylated proteins. The pre-cleared lysates were then divided into equal aliquots. […] The lysates were then boiled in gel sample buffer, separated by SDS-PAGE, and transferred to a PVDF membrane.

Data set [7] is classed as in vitro ADME, murine and human. As for the experimental part: Human and mouse liver microsomes and NADPH regenerating system solutions were purchased from Corning Life Sciences (Tewsbury, MA). Human and mouse K2EDTA was purchased from BioIVT (Westbury, NY). Metabolic studies in liver microsomes (0.125 mg/mL) were conducted in 1× phosphate buffered saline (pH 7.4), NADPH-generating system, and 10 μM of RA475 in a final volume of 250 μl. An incubation mixture with and without NADPH-generating system as well as a neat solution without microsomes and NADPH-generating system were prepared. RA475 was added at the same concentration level into human and mouse EDTA plasma. All reactions were initiated with the addition of RA475. Incubations were performed in glass tubes maintained at 37° C. in a shaker bath. At 0, 30, and 60 minutes, 10 μL aliquots were sampled from the reaction mixture and 0.5 mL of acetonitrile containing internal standard (Up284) was added to each samples. Samples were vortex-mixed and underwent centrifugation for 5 min at 1430×g. […] The column effluent was monitored using an AB Sciex 5500 triple quadrupole mass spectrometer. […] Results were assessed qualitatively comparing the average area ratio of RA475 at 0 hr to area ratio at 30 and 60 minutes for both mouse and human liver microsomes. RA475 was not analyzed for metabolites due to the concentration of RA475 not decreasing. […]

T1 sequence (Q16186 whole entry): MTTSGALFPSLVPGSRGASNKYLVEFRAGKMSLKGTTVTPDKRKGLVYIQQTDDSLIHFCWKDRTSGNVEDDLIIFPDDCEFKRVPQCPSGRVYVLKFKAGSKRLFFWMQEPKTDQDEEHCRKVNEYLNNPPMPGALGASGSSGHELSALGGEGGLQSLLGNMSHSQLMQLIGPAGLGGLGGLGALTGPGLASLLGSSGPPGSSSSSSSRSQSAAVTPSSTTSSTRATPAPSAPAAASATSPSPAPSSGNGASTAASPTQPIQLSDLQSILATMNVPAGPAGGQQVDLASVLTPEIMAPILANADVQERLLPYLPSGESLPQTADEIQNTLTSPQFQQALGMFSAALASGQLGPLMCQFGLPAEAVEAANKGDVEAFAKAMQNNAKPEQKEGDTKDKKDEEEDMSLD

For the compound `Cl.Cl.N#Cc1ccc(/C=C2/C(=O)/C(=C/c3ccc(C#N)cc3)C23CCN(C(=N)N)CC3)cc1` [RA475], the concentration for half-maximal inhibition (IC50) turned out to be 213 nM in data set [1], 742 nM in data set [2], 217 nM in data set [3] and 600 nM in data set [4]. In data set [5] (single dose, intraperitoneal, 80 mg/Kg highest dose level tested), the NOAEL is > 80 mg/kg. The “adverse events” value in data set [5] (single i.p. doses at or below 80 mg/Kg) is recorded as “No evidence of adverse events, including weight loss”. In addition, the “competition with binding of Up284B probe to RPN13” value in data set [6] is recorded as “dose-dependently competed”.
As for `N#Cc1ccc(/C=C2/C(=O)/C(=C/c3ccc(C#N)cc3)C23CCNCC3)cc1` [Up284, reference compound], the non-enzymatic degradation in data set [7] is given as ~50%. For the same compound, the “additional degradation by CYP450 activity” value in data set [7] (microsomes) was 9-13%.
